Laboratory results published in US12421253B2 (Mirati Therapeutics, Inc., priority 2020, dated 2025).

Legend:
[1] = biological target: T1, KRas^WT (Homo sapiens, UniProt P01116); assay: KRas binding assay (TR-FRET displacement of Cy5 labelled tracer)
T1 construct: […]; biotin (biotinylated); purchased Accelegan Inc
Procedure: (§6) The ability of a compound to bind to KRas was measured using a TR-FRET displacement assay. […] After a 60-minute incubation at room temperature, the reaction was measured using a BMG LABTECH CLARIO star Plus via TR-FRET. […] The POC values were fit to a 4-parameter IC50 equation and the IC50 value reported.

[2] = biological target: T2, KRas^G12A (Homo sapiens, UniProt P01116, G12A); assay: as above
T2 construct: […]; biotin (biotinylated); purchased Accelegan Inc
Procedure: as §6

[3] = biological target: T3, KRas^G12D (Homo sapiens, UniProt P01116, G12D); assay: as above
T3 construct: […]; biotin (biotinylated); purchased Accelegan Inc
Procedure: as §6

[4] = biological target: T4, KRas^G12R (Homo sapiens, UniProt P01116, G12R); assay: as above
T4 construct: […]; biotin (biotinylated); purchased Accelegan Inc
Procedure: as §6

[5] = biological target: T5, KRas^G12S (Homo sapiens, UniProt P01116, G12S); assay: as above
T5 construct: […]; biotin (biotinylated); purchased Accelegan Inc
Procedure: as §6

[6] = biological target: T6, KRas^G12V (Homo sapiens, UniProt P01116, G12V); assay: as above
T6 construct: […]; biotin (biotinylated); purchased Accelegan Inc
Procedure: as §6

[7] = system: AsPC-1 (G12D) cells, phospho-ERK; assay: Inhibition of KRas-mediated phosphorylation of ERK (phospho-ERK/GAPDH antibody detection, LI-COR); assay type: cell-based; conditions: Homo sapiens, ASPC1, 3 hours
Procedure: (§1) AsPC-1 (G12D, ATCC CRL-1682), A549 (G12S, ATCC CCL-185), HCT116 (G13D, ATCC CCL-247) cells were grown in DMEM medium supplemented with 10% fetal bovine serum and Penicillin/Streptomycin. NCI-H358 (G12C, ATCC CRL-5807), NCI-H460 (Q61H, ATCC HTB-117), NCI-H727 (G12V, ATCC CRL-5815), MKN1 (WTdep, JCRB JCRB0252), PSN-1 (G12R, ATCC CRM-CRL-3211) cells were grown in RPMI medium supplemented with 10% fetal bovine serum, 10 mM HEPES, 10 mM Sodium Pyruvate, and Penicillin/Streptomycin. Cells were plated in black well clear bottom tissue culture treated 96 well plates (Corning, 3904) at a density of 20,000 cells/well and allowed to attach for 12-14 hours. Diluted compounds were then added in a final concentration of 0.5% DMSO. After 3 hours, 50 μL of 4.0% formaldehyde was added and the plates incubated at room temperature for 20 minutes. The plates were then dumped and permeabilized with 150 μL of ice cold 100% methanol for 10 minutes. Non-specific antibody binding to the plates was blocked using 100 μL Odyssey blocking buffer (LI-COR Biosciences, 927-60010) for 1 hour at room temperature.
(§2) The amount of phospho-ERK was determined using an antibody specific for the phosphorylated form of ERK and compared to the amount of GAPDH. Primary antibodies used for the detection were added as follows: Phospho-ERK (Cell Signaling CS-9101) diluted 1:500 and GAPDH (Millipore MAB374) diluted 1:5000 in Odyssey blocking buffer+0.05% Tween 20. The plates were incubated overnight at 4 C. The plates were washed 3× with 150 uL PBS+0.1% Tween 20.
(§3) Secondary antibodies used to visualize primary antibodies were added as follows: Goat Anti-Rabbit-800 (LI-COR, 926-32211) and Goat Anti-Mouse-680 (LI-COR, 926-68070) diluted 1:800 both in Odyssey blocking buffer+0.05% Tween 20 and were incubated for 1 hour at room temperature. The plates were washed 3× with 150 uL PBS+[…]. Plates were imaged dry on a Li—COR Odyssey CLX plate reader.
(§4) The phospho-ERK (Thr202/Tyr204) signal was normalized to the GAPDH signal for each well and percent of DMSO control values were calculated. IC50 values were generated using a 4-parameter fit of the dose response curve.

[8] = system: NCI-H460 (Q61H) cells, phospho-ERK; assay: as above; assay type: cell-based; conditions: Homo sapiens, 3 hours
Procedure: as §1, §2, §3, §4

[9] = system: NCI-H727 (G12V) cells, phospho-ERK; assay: as above; assay type: cell-based; conditions: Homo sapiens, 3 hours
Procedure: as §1, §2, §3, §4

[10] = system: MKN1 cells, pERK; assay: Inhibition of KRas phosphorylation of ERK (Cisbio HTRF Advanced pERK assay); assay type: cell-based; conditions: Homo sapiens, MKN-1, 3 h, read-out: Inhibition (HTRF IC50 nM) of KRas-mediated Phosphorylation of ERK, MKN1
Outline: (§5)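 Cells were seeded overnight in RPMI with 10% FBS, then treated for 3 h at 37 °C with 10-dose, 3-fold compound titrations from 10 uM (0.8% DMSO final). After lysis at 4 °C, phospho-ERK was quantified by HTRF using d2- and cryptate-labelled antibodies; 0.2 uM trametinib served as minimum control.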

[11] = system: PSN1 cells, pERK; assay: as above; assay type: cell-based; conditions: Homo sapiens, PSN1, 3 h, read-out: Inhibition (HTRF IC50 nM) of KRas-mediated Phosphorylation of ERK, PSN1
Outline: as §5

[12] = biological target: KRas^G12C (Homo sapiens, UniProt P01116, G12C); assay: biochemical
Procedure: as §6

[13] = biological target: KRas^G13D (Homo sapiens, UniProt P01116, G13D); assay: biochemical
Procedure: as §6

[14] = biological target: KRas^Q61H (Homo sapiens, UniProt P01116, Q61H); assay: biochemical
Procedure: as §6

[15] = system: ASPC1 cells, pERK; assay: Inhibition of KRas phosphorylation of ERK (Cisbio HTRF Advanced pERK assay); assay type: cell-based; conditions: Homo sapiens, ASPC1, 3 h, AsPC-1 cells, read-out: Inhibition (HTRF IC50 nM) of KRas-mediated Phosphorylation of ERK, AsPC-1
Outline: as §5

[16] = system: H727 cells, pERK; assay: as above; assay type: cell-based; conditions: Homo sapiens, NCI-H727, 3 h, read-out: Inhibition (HTRF IC50 nM) of KRas-mediated Phosphorylation of ERK, H727
Outline: as §5

[17] = system: HCT116 cells, pERK; assay: as above; assay type: cell-based; conditions: Homo sapiens, HCT-116, 3 hrs, read-out: Inhibition (HTRF IC50 nM) of KRas-mediated Phosphorylation of ERK, HCT116
Outline: as §5

T3 sequence (P01116 1-169 isoform P01116-2 G12D): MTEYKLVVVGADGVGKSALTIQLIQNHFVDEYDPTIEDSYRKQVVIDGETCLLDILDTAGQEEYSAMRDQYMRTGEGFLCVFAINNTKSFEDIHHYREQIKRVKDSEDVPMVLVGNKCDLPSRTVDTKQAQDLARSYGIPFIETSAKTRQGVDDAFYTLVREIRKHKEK
T6 sequence (P01116 1-169 isoform P01116-2 G12V): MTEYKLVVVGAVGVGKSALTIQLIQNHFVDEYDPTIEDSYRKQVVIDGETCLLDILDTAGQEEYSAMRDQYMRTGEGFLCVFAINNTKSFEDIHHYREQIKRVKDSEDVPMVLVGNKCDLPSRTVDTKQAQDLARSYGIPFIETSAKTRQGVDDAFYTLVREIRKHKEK
T4 sequence (P01116 1-169 isoform P01116-2 G12R): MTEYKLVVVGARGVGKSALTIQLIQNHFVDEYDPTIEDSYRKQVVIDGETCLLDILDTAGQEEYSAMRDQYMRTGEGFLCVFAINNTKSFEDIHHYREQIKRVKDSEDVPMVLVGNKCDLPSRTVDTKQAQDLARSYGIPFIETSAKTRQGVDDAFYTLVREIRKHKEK
T2 sequence (P01116 1-169 isoform P01116-2 G12A): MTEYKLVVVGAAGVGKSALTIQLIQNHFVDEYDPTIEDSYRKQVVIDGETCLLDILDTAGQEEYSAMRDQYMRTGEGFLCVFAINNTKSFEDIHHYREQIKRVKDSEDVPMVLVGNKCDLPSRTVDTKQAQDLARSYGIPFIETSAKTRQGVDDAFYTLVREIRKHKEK
KRas^G12C, sequence (P01116 1-169 isoform P01116-2 G12C): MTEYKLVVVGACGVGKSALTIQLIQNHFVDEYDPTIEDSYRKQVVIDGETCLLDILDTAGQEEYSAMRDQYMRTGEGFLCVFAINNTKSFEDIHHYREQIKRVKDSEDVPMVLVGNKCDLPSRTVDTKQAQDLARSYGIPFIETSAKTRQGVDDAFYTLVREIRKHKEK
T1 sequence (P01116 1-169 isoform P01116-2): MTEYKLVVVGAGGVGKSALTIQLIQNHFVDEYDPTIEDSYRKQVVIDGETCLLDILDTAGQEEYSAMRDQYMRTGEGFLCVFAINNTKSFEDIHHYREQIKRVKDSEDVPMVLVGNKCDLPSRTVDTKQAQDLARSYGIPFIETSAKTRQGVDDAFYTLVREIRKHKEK
KRas^Q61H, sequence (P01116 1-169 isoform P01116-2 Q61H): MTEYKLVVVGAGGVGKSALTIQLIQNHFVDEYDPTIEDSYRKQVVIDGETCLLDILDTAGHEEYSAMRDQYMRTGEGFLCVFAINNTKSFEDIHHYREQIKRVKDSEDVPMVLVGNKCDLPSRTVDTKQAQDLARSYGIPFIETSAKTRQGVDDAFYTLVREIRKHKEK
T5 sequence (P01116 1-169 isoform P01116-2 G12S): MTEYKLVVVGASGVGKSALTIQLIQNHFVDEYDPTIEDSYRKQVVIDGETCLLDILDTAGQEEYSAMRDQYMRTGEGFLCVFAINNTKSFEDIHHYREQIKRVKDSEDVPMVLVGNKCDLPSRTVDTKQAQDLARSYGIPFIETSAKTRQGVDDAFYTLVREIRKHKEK
KRas^G13D, sequence (P01116 1-169 isoform P01116-2 G13D): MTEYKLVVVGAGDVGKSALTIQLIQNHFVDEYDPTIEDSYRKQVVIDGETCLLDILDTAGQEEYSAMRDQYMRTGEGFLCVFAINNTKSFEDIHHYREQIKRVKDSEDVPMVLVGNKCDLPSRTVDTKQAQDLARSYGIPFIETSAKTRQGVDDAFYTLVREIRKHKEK

Row | SMILES | IC50 [1] | IC50 [2] | IC50 [3] | IC50 [4] | IC50 [5] | IC50 [6] | IC50 [7] | IC50 [8] | IC50 [9] | IC50 [10] | IC50 [11] | IC50 [12] | IC50 [13] | IC50 [14] | IC50 [15] | IC50 [16] | IC50 [17]
1 | CCc1c(F)ccc2cc(O)cc(N3CCc4c(nc(OC[C@@]56CCCN5C[C@H](F)C6)nc4N4CCCC(c5ncn[nH]5)C4)C3)c12 (stereo partly drawn) [Example 19, 4-(4-(3-(1H-1,2,4-triazol-5-yl)piperidin-1-yl)-2-(((2R,7aS)-2-fluorotetrahydro-1H-pyrrolizin-7a(5H)-yl)methoxy)-5,8-dihydropyrido[3,4-d]pyrimidin-7(6H)-yl)-5-ethyl-6-fluoronaphthalen-2-ol] | 8 nM | 4 nM | 26 nM | 4 nM | 9 nM | 6 nM | 2680 nM | 1290 nM | 2930 nM | 389 nM | ≥ 10000 nM | 5 nM | 11 nM | 9 nM | – | – | –
2 | CCc1c(F)ccc2cc(O)cc(N3CCc4c(nc(OC[C@@]56CCCN5C[C@H](F)C6)nc4NCc4ccc5nncn5c4)C3)c12 [Example 31, 4-(4-(([1,2,4]triazolo[4,3-a]pyridin-6-ylmethyl)amino)-2-(((2R,7aS)-2-fluorohexahydro-1H-pyrrolizin-7a-yl)methoxy)-5,6-dihydropyrido[3,4-d]pyrimidin-7(8H)-yl)-5-ethyl-6-fluoronaphthalen-2-ol] | – | – | 31 nM | ≤ 2 nM | – | ≤ 2 nM | 3540 nM | > 10000 nM | 3320 nM | 637 nM | ≥ 10000 nM | – | – | – | – | – | –
3 | CCc1c(F)ccc2cc(O)cc(N3CCc4c(nc(OC[C@@]56CCCN5C[C@H](F)C6)nc4N4CCOCC(O)C4)C3)c12 (stereo partly drawn) [Example 29, 4-(7-(8-ethyl-7-fluoro-3-hydroxynaphthalen-1-yl)-2-(((2R,7aS)-2-fluorohexahydro-1H-pyrrolizin-7a-yl)methoxy)-5,6,7,8-tetrahydropyrido[3,4-d]pyrimidin-4-yl)-1,4-oxazepan-6-ol] | – | – | ≤ 2 nM | ≤ 2 nM | – | ≤ 2 nM | 509 nM | 285 nM | 542 nM | 20 nM | 5810 nM | – | – | – | 318 nM | 906 nM | 1310 nM
4 | CCc1c(F)ccc2cc(O)cc(N3CCc4c(nc(OC[C@@]56CCCN5C[C@H](F)C6)nc4N4CCOCC(n5cccn5)C4)C3)c12 (stereo partly drawn) [Example 25, 4-(4-(6-(1H-pyrazol-1-yl)-1,4-oxazepan-4-yl)-2-(((2R,7aS)-2-fluorohexahydro-1H-pyrrolizin-7a-yl)methoxy)-5,6-dihydropyrido[3,4-d]pyrimidin-7(8H)-yl)-5-ethyl-6-fluoronaphthalen-2-ol] | – | – | 3 nM | 4 nM | – | 3 nM | 448 nM | 171 nM | 540 nM | 51 nM | 8320 nM | – | – | – | 180 nM | 767 nM | 521 nM
5 | CCc1c(F)ccc2cc(O)cc(N3CCc4c(nc(OC[C@@]56CCCN5C[C@H](F)C6)nc4N4CCCC(O)(C(F)F)C4)C3)c12 (stereo partly drawn) [Example 32, 3-(difluoromethyl)-1-(7-(8-ethyl-7-fluoro-3-hydroxynaphthalen-1-yl)-2-(((2R,7aS)-2-fluorohexahydro-1H-pyrrolizin-7a-yl)methoxy)-5,6,7,8-tetrahydropyrido[3,4-d]pyrimidin-4-yl)piperidin-3-ol] | – | – | ≤ 2 nM | 3 nM | – | ≤ 2 nM | 624 nM | 381 nM | 1090 nM | 31 nM | 1540 nM | – | – | – | – | – | –
6 | CCc1c(F)ccc2cc(O)cc(N3CCc4c(nc(OC[C@@]56CCCN5C[C@H](F)C6)nc4N4CCCC(n5cccn5)C4)C3)c12 (stereo partly drawn) [Example 67, 4-(4-(3-(1H-pyrazol-1-yl)piperidin-1-yl)-2-(((2R,7aS)-2-fluorohexahydro-1H-pyrrolizin-7a-yl)methoxy)-5,6-dihydropyrido[3,4-d]pyrimidin-7(8H)-yl)-5-ethyl-6-fluoronaphthalen-2-ol] | – | – | 11 nM | ≤ 2 nM | – | 7 nM | 1570 nM | 225 nM | 876 nM | 112 nM | ≥ 10000 nM | – | – | – | – | – | –
7 | CCc1c(F)ccc2cc(O)cc(N3CCc4c(nc(OC[C@@]56CCCN5C[C@H](F)C6)nc4NCc4c[nH]c5ncccc45)C3)c12 [Example 23, 4-(4-(((1H-pyrrolo[2,3-b]pyridin-3-yl)methyl)amino)-2-(((2R,7aS)-2-fluorohexahydro-1H-pyrrolizin-7a-yl)methoxy)-5,6-dihydropyrido[3,4-d]pyrimidin-7(8H)-yl)-5-ethyl-6-fluoronaphthalen-2-ol] | 36 nM | 9 nM | 69 nM | 4 nM | 12 nM | 5 nM | 3850 nM | 1770 nM | 2420 nM | 53 nM | ≥ 10000 nM | 7 nM | 42 nM | 38 nM | – | – | –
8 | CCc1c(F)ccc2cc(O)cc(N3CCc4c(nc(OC[C@@]56CCCN5C[C@H](F)C6)nc4N4CCCCCC(S(C)(=O)=O)C4)C3)c12 (stereo partly drawn) [Example 36, 5-ethyl-6-fluoro-4-(2-(((2R,7aS)-2-fluorotetrahydro-1H-pyrrolizin-7a(5H)-yl)methoxy)-4-(3-(methylsulfonyl)azocan-1-yl)-5,8-dihydropyrido[3,4-d]pyrimidin-7(6H)-yl)naphthalen-2-ol] | – | – | 5 nM | 5 nM | – | ≤ 2 nM | 1760 nM | 731 nM | 1730 nM | 37 nM | ≥ 10000 nM | – | – | – | – | – | –
9 | CCc1c(F)ccc2cc(O)cc(N3CCc4c(nc(OC[C@@]56CCCN5C[C@H](F)C6)nc4N4CC5CC(O)CC4C5)C3)c12 (stereo partly drawn) [Example 35, 6-(7-(8-ethyl-7-fluoro-3-hydroxynaphthalen-1-yl)-2-(((2R,7aS)-2-fluorohexahydro-1H-pyrrolizin-7a-yl)methoxy)-5,6,7,8-tetrahydropyrido[3,4-d]pyrimidin-4-yl)-6-azabicyclo[3.2.1]octan-3-ol] | – | – | 7 nM | ≤ 2 nM | – | 52 nM | 2360 nM | 1430 nM | 1620 nM | 159 nM | 5720 nM | – | – | – | – | – | –
